According to US10433544B2, “Herbicide” (University of Kentucky Research Foundation, priority 2017, dated 2019):

Tests used:
[1] = target: T1, sorbitol dehydrogenase (SDH) (Ovis aries, UniProt P07846); details: cited from earlier work
T1 sequence (P07846 1-354): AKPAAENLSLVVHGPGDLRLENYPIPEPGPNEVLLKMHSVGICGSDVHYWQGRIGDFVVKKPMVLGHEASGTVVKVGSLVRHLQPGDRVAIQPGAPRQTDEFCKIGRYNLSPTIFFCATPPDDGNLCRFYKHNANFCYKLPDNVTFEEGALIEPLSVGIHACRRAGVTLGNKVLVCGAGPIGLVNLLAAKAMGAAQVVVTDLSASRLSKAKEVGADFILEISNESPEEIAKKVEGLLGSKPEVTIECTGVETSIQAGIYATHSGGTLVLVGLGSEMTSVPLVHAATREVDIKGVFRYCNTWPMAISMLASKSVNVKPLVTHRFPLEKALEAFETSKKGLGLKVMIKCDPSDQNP

[2] = system: seed of alfalfa, dandelion and mixed grasses; experiment: Seed germination in 300 mM solutions of fructose and polyols (FIG. 1); type: in vivo; details: ribitol/xylitol 150 mM + 150 mM, 8 days of incubation
Method: FIG. 1 includes a chart showing the effect of 300 mM solutions of fructose and polyols, and a 150 mM ribitol plus 150 mM xylitol (R+X) formulation on seed germination. Means±standard deviation are across alfalfa, dandelion and mixed grasses after 8 days of incubation.
Seed of several species were incubated with 300 mM solutions of fructose, inositol, sorbitol, ribitol, xylitol as well as a ribitol/xylitol solution.

dandelion plants = experiment: Container studies, spraying of dandelion plants (FIG. 4); type: in vivo; details: 300 mm, ribitol+xylitol each at 150 mM, sprayed twice weekly for 2 weeks
Method: FIG. 4 includes images showing the effect of application of […] fructose, glucose, sorbitol, ribitol, xylitol, or ribitol+xylitol (each at 150 mM) twice weekly for 2 weeks on dandelion plants.
(§1) In container studies, fructose, inositol, sorbitol, ribitol, xylitol as well as a ribitol/xylitol solution were applied at 300 mM total concentration to plants including white clover and pigweed. […] Other common sugars like glucose and fructose had no effect. […] Due to the desire for a broad spectrum herbicide that affected both seed germination and plant growth the most, and to keep the most expensive component, ribitol, to a low effective level, we concluded that the 150 mM ribitol/150 mM xylitol formulation (300 mM combined concentration) was the optimum for field tests.

[3] = system: growing plants of several weed species, including clover and pigweed; experiment: Container studies, application to growing plants of several weed species (FIG. 3); type: in vivo, white clover and pigweed; details: for effect of application on growing plants: 300 mM total concentration, twice a week for 2 weeks; for severity of effect across species / rank order of the effect: 300 mM; for severity of effect across species: container studies; for rank order of the effect: injury and death of growing plants
Method: FIG. 3 includes images showing the effect of application of selected sugars and polyols twice a week for 2 weeks to white clover (A) and pigweed (B) plants.
as §1

seed of turfgrass = experiment: Turfgrass seed germination in xylitol, ribitol and ribitol/xylitol solutions (FIG. 2A); type: in vivo; details: total concentrations 100 to 300 mM, 10 days
Method: (§2) FIG. 2 includes images of grass (A) and Dutch white clover (B) seed germination after 10 days in solutions of xylitol alone, ribitol alone, and xylitol+ribitol, at total concentrations of 100 to 300 mM (grass) or 100 to 400 mM (clover).
(§3) Seed of turfgrass (FIG. 2A) and Dutch white clover (FIG. 2B) were incubated with solutions of xylitol, ribitol, and a ribitol/xylitol solution at 100 to 300 mM (A) or 100 to 400 mM (B). […] The clover seed was in developmental arrest at 400 mM ribitol and 300 mM ribitol/xylitol.

[4] = system: sdh-knockout mutant plants and Wild Type plants; details: 50 mM ribitol, cited from earlier work
[5] = system: seed of Dutch white clover; experiment: Dutch white clover seed germination in xylitol, ribitol and ribitol/xylitol solutions (FIG. 2B); type: in vivo; details: total concentrations 100 to 400 mM, 10 days
Method: as §2, §3

[6] = system: seed germination of numerous plant species; experiment: Ribitol toxicity effect on seed germination, numerous plant species; type: in vivo; details: ribitol with no adjuvant
Excerpt: An increasing number of species have been identified as bearing the SDH gene and activity (Jia et al., […]), so most weed species could likely metabolize it.

rice seeds = experiment: Seed germination with ribitol and SDH specific inhibitor (FIG. 8), rice; type: in vivo; details: 150 mM ribitol, 0.5 mM CP-470711, six days
Method: (§4) FIG. 8 includes images showing the effect of blocking SDH activity with (A) water (B) 150 mM ribitol (C) the SDH-specific inhibitor CP-470711(Pfizer) and (D) ribitol+CP-470711 on sensitivity of seed germination of Wild Type Arabidopsis, tomato, and rice for 6 days.
(§5) The effect of blocking SDH activity with an SDH specific inhibitor was explored with application to wild type Arabidopsis, tomato and rice seeds for six days. […] Each compound alone at the same concentration had no effect.

seed germination = details: when it cannot be metabolized properly; cited from earlier work
tomato seeds = experiment: Seed germination with ribitol and SDH specific inhibitor (FIG. 8), tomato; type: in vivo; details: 150 mM ribitol, 0.5 mM CP-470711, six days
Method: as §4, §5

[7] = system: wild type Arabidopsis seeds; experiment: Seed germination with ribitol and SDH specific inhibitor (FIG. 8), Arabidopsis; type: in vivo; details: 150 mM ribitol, 0.5 mM CP-470711, six days
Method: as §4, §5

SMILES: SCCc1ccccc1 [1-thio-2-phenylethane]
- SDH inhibition [1]: effective SDH inhibitors

SMILES: O[C@H]1[C@H](O)[C@@H](O)[C@H](O)[C@@H](O)[C@H]1O [inositol, reference compound]
- inhibition of seed germination [2]: only significantly inhibited by the ribitol/xylitol solution

SMILES: OC[C@@H](O)[C@H](O)[C@@H](O)CO [xylitol]
- effect on dandelion plants (dandelion plants): death of plants
- inhibition of seed germination [2]: only significantly inhibited by the ribitol/xylitol solution
- effect of application on growing plants [3]: caused injury and death
- severity of effect across species [3]: caused damage
- rank order of the effect [3]: sorbitol<xylitol≤ribitol

SMILES: O=C(CO)[C@@H](O)[C@H](O)[C@H](O)CO [fructose, reference compound]
- inhibition of seed germination [2]: only significantly inhibited by the ribitol/xylitol solution
- effect of application on growing plants [3]: no effect

SMILES: OC[C@@H](O)[C@@H](O)[C@H](O)[C@@H](O)CO [sorbitol]
- inhibition of seed germination [2]: only significantly inhibited by the ribitol/xylitol solution
- effect of application on growing plants [3]: caused injury and death
- severity of effect across species [3]: caused damage
- rank order of the effect [3]: sorbitol<xylitol≤ribitol

SMILES: SCc1ccccc1 [1-thio-1-phenylmethane]
- SDH inhibition [1]: effective SDH inhibitors

SMILES: OC[C@@H](O)[C@@H](O)[C@@H](O)CO [ribitol]
- concentration at which grass seed was significantly inhibited (seed of turfgrass): 300 mM
- effect of application on Wild Type plants ([4]; Wild Type plants): no effect
- effect of application on sdh-knockout mutant plants ([4]; well-watered sdh-knockout mutant plants): quick injury and eventual death
- concentration at which clover seed was in developmental arrest [5]: 400 mM
- ribitol concentration at which toxicity effect on seed germination occurred [6]: ≥ 300 mM
- effect on dandelion plants (dandelion plants): death of plants
- effect on seed germination (rice seeds): no effect
- inhibition of seed germination [2]: only significantly inhibited by the ribitol/xylitol solution
- effect of application on growing plants [3]: caused injury and death
- rank order of the effect [3]: sorbitol<xylitol≤ribitol
- effect on seed germination (seed germination): inhibited seed germination
- effect on seed germination (tomato seeds): no effect
- effect on seed germination [7]: no effect
